Source: the CheMixHub ionic liquid set
Several values for one entry are separate records, joined by “and”; a condition that tells them apart may be missing. Equal entries are not always repeated. ± gives the uncertainty stated by the source.

Assay: xn = mol fraction of the nth substance listed

CCOP(=O)([O-])OCC.CC[n+]1ccn(C)c1 + CCCO + O
100 kPa
Conditions	viscosity [mPa·s]
293.15 K, x2 = 0.347, x3 = 0.3491	90 ± 12
303.15 K, x2 = 0.294, x3 = 0.304	78 ± 10
313.15 K, x2 = 0.15, x3 = 0.1487	93 ± 12
313.15 K, x2 = 0.199, x3 = 0.1954	76 ± 10
323.15 K, x2 = 0.048, x3 = 0.0487	80 ± 11

CCCC[N+]1(C)CCCC1.N#C[N-]S(=O)(=O)C(F)(F)F + N#C[N-]S(=O)(=O)C(F)(F)F.[Li+]
101 kPa, frequency 0 MHz, x2 = 0
Conditions	electrical conductivity [S/m]
308 K	0.644 ± 0.065
313 K	0.752 ± 0.075

101 kPa, x2 = 0
Conditions	viscosity [mPa·s]
308 K	33.6 ± 1.7
313 K	28.6 ± 1.5

CC(C)O + CC[n+]1ccn(CCOC)c1.O=S(=O)([O-])C(F)(F)F
101 kPa, x2 = 0
Conditions	viscosity [mPa·s]
288.15 K	2.806 ± 0.06
293.15 K	2.397 ± 0.051
298.15 K	2.059 ± 0.044
303.15 K	1.777 ± 0.038
308.15 K	1.542 ± 0.033
313.15 K	1.344 ± 0.029
318.15 K	1.176 ± 0.025

CCCC[n+]1ccn(C)c1.[Cl-] + CC#N
298.15 K, 101 kPa, x2 = 0.8012
Conditions	electrical conductivity [S/m]	viscosity [mPa·s]
–	1.53 ± 0.03	3.52 ± 0.65

CCCCO + CCCC[n+]1ccn(C)c1.N#C[S-]
101 kPa, x1 = 1
Conditions	viscosity [mPa·s]
328.15 K	1.25 ± 0.01
348.15 K	0.846 ± 0.001

CCOP(=O)([O-])OCC.CC[n+]1ccn(C)c1 + O + CS(C)=O
viscosity [mPa·s], 100 kPa
Conditions	293.15 K	303.15 K	313.15 K	323.15 K
x2 = 0.004, x3 = 0.497	–	53 ± 10	–	–
x2 = 0.005, x3 = 0.768	–	–	9.6 ± 3.4	7.1 ± 2
x2 = 0.008, x3 = 0.886	5.9	–	3.5 ± 1.5	2.9 ± 1

CCOP(=O)([O-])OCC.CC[N+]1(C)CCOCC1 + CCO
viscosity [mPa·s], 100 kPa
Conditions	293.15 K	298.15 K	303.15 K	308.15 K	313.15 K	318.15 K	323.15 K	328.15 K	333.15 K	338.15 K
x1 = 0.0996	4.62 ± 0.28	4.1 ± 0.25	3.75 ± 0.23	3.43 ± 0.21	3.13 ± 0.19	2.91 ± 0.18	2.76 ± 0.17	2.58 ± 0.16	2.4 ± 0.15	2.24 ± 0.14
x1 = 0.2018	12.84 ± 0.78	11.11 ± 0.67	9.79 ± 0.59	8.75 ± 0.53	7.93 ± 0.48	7.21 ± 0.44	6.69 ± 0.4	6.18 ± 0.37	5.76 ± 0.35	5.54 ± 0.34
x1 = 0.3003	36.7 ± 2.2	29.6 ± 1.8	24.7 ± 1.5	20.8 ± 1.3	18.1 ± 1.1	15.82 ± 0.96	14.33 ± 0.87	13.01 ± 0.79	11.79 ± 0.72	10.78 ± 0.65
x1 = 0.4018	97.7 ± 6.1	75.1 ± 4.6	59 ± 3.6	47.6 ± 2.9	38.2 ± 2.3	31.8 ± 1.9	27.3 ± 1.7	23.5 ± 1.4	21.1 ± 1.3	18.7 ± 1.1
x1 = 0.4998	257 ± 18	183 ± 12	136.7 ± 8.8	102.9 ± 6.5	78.9 ± 4.9	61.3 ± 3.8	49.2 ± 3	40.1 ± 2.5	33.3 ± 2.1	29 ± 1.8
x1 = 0.6009	625 ± 49	419 ± 31	291 ± 20	209 ± 14	155 ± 10	116.8 ± 7.5	90 ± 5.7	68.9 ± 4.3	54.9 ± 3.4	44.7 ± 2.8
x1 = 0.7005	1447 ± 130	938 ± 78	631 ± 49	424 ± 31	298 ± 21	213 ± 15	158 ± 11	120.4 ± 7.8	91.7 ± 5.8	72 ± 4.5
x1 = 0.7996	3386 ± 340	2221 ± 210	1448 ± 130	895 ± 74	582 ± 45	409 ± 30	282 ± 20	205 ± 14	155 ± 10	114.1 ± 7.4
x1 = 0.901	6136 ± 670	3670 ± 370	2214 ± 210	1372 ± 120	909 ± 76	604 ± 48	418 ± 32	297 ± 21	215 ± 15	160 ± 11
x1 = 1	12100 ± 1500	6680 ± 740	3786 ± 390	2325 ± 220	1466 ± 130	942 ± 80	634 ± 51	443 ± 34	312 ± 23	226 ± 16

CCCC[n+]1ccn(C)c1.COP(=O)([O-])OC + CCCC(=O)[O-].CC[NH+](CC)CCO
101 kPa, x2 = 0
Conditions	viscosity [mPa·s]
298.15 K	609 ± 21
318.15 K	168.9 ± 3.3
328.15 K	100.9 ± 1.5
348.15 K	43.18 ± 0.55
373.15 K	19.25 ± 0.24

[Cl-].[Cl-].[Co+2] + CCCCCCCCCCCCCC[P+](CCCCCC)(CCCCCC)CCCCCC.[Cl-] + CCCCCCCC(=O)O
Conditions	viscosity [mPa·s]
296.1 K, 101.3 kPa, x2 = 0.4, x1 = 0.2	8500 ± 2600

CCCCC[N+](CC)(CC)CC.O=S(=O)([N-]S(=O)(=O)C(F)(F)F)C(F)(F)F + CCCCC[P+](CC)(CC)CC.O=S(=O)([N-]S(=O)(=O)C(F)(F)F)C(F)(F)F
101.3 kPa
Conditions	viscosity [mPa·s]
298.15 K, x1 = 0.6	123 ± 25
303.15 K, x1 = 1	126 ± 25
318.15 K, x1 = 0.2	39.5 ± 7.9
338.15 K, x1 = 0.6	22.8 ± 4.6
343.15 K, x1 = 1	23.3 ± 4.7
348.15 K, x1 = 0.8	18.3 ± 3.7
353.15 K, x1 = 0.2	13.1 ± 2.6
353.15 K, x1 = 1	17.3 ± 3.5

CCOP(=O)([O-])OCC.CC[n+]1ccn(C)c1 + CS(C)=O
298.1 K, 100 kPa
Conditions	electrical conductivity
x1 = 0.025	0.31 S/m and 0.4 S/m
x1 = 0.407	0.4 ± 0.02 S/m
x1 = 0.718	0.16 ± 0.01 S/m
x1 = 1	0.09 ± 0.01 S/m

CCCCCCCCn1cc[n+](C)c1.[Br-] + O + CCCCCCCCn1cc[n+](C)c1.F[B-](F)(F)F
298.15 K, 101 kPa
Conditions	electrical conductivity [S/m]
x1 = 0.0002342, x3 = 5.406e-05	0.15 ± 0.01
x1 = 0.001691, x3 = 0.0003242	0.8 ± 0.02
x1 = 0.002265, x3 = 0.0004503	0.99 ± 0.02
x1 = 0.002803, x3 = 0.0005403	1.11 ± 0.02
x1 = 0.00343, x3 = 0.0006663	1.24 ± 0.03
x1 = 0.004413, x3 = 0.0008642	1.37 ± 0.03
x1 = 0.004913, x3 = 0.0009541	1.45 ± 0.03

O=C1CCCO1 + CCC[N+]1(C)CCCC1.O=S(=O)([N-]S(=O)(=O)C(F)(F)F)C(F)(F)F
101 kPa, x2 = 0
Conditions	viscosity [mPa·s]
288.15 K	2.146 ± 0.087
318.15 K	1.398 ± 0.057
348.15 K	0.99 ± 0.04

CC(C)O + CC[n+]1ccn(CCOC)c1.N#C[S-]
100 kPa, x2 = 0
Conditions	viscosity [mPa·s]
288.15 K	2.83 ± 0.15
293.15 K	2.42 ± 0.13
298.15 K	2.07 ± 0.11
303.15 K	1.79 ± 0.098
308.15 K	1.552 ± 0.085
313.15 K	1.352 ± 0.074
318.15 K	1.183 ± 0.065

CCCC[n+]1ccn(C)c1.O=S(=O)([O-])C(F)(F)F + CCCC[n+]1ccn(C)c1.F[P-](F)(F)(F)(F)F
100 kPa
Conditions	viscosity [mPa·s]
293.15 K, x2 = 0.006063	91.5 ± 2.5
293.15 K, x2 = 0.15	109.5 ± 3.5
293.15 K, x2 = 0.1999	116.6 ± 3.9
293.15 K, x2 = 0.7	218 ± 11
298.15 K, x2 = 0.08059	83.4 ± 2.2
303.15 K, x2 = 0.08059	69.3 ± 1.6
303.15 K, x2 = 0.1	70.8 ± 1.6
308.15 K, x2 = 0.15	60 ± 1.3
308.15 K, x2 = 0.1999	63.1 ± 1.4
313.15 K, x2 = 0.1999	50.6 ± 1
313.15 K, x2 = 0.5002	66.8 ± 1.5
313.15 K, x2 = 0.7995	88.2 ± 2.4
318.15 K, x2 = 0.15	40 ± 0.87
318.15 K, x2 = 0.1999	41.75 ± 0.91
318.15 K, x2 = 0.3	45.51 ± 0.99
318.15 K, x2 = 0.8997	76.3 ± 1.9
323.15 K, x2 = 0.3	38.24 ± 0.83
323.15 K, x2 = 0.8997	62.3 ± 1.4
328.15 K, x2 = 0.15	29.81 ± 0.65
328.15 K, x2 = 0.1999	30.97 ± 0.68

CCCC[n+]1ccn(C)c1.O=S(=O)([O-])C(F)(F)F + Nc1ccccc1
100 kPa
Conditions	viscosity [mPa·s]
288.15 K, x2 = 0	132.7 ± 6.1
293.15 K, x2 = 0.3002	57.6 ± 2.6
298.15 K, x2 = 0.1995	56.1 ± 2.5
303.15 K, x2 = 0.3002	37.3 ± 1.6
318.15 K, x2 = 0.3996	17.67 ± 0.78
323.15 K, x2 = 0.3002	18.28 ± 0.81
323.15 K, x2 = 0.8999	3.12 ± 0.14
328.15 K, x2 = 0.8999	2.76 ± 0.12
333.15 K, x2 = 0.1995	16.23 ± 0.72

[Cl-].[Cl-].[Co+2] + CCCCCCCC[N+](CCCCCCCC)(CCCCCCCC)CCCCCCCC.[Br-] + Cc1ccc(C(C)C)c(O)c1
296.1 K, 101.3 kPa
Conditions	viscosity [mPa·s]
x2 = 0.4, x1 = 0.2	79000
x2 = 0.4286, x1 = 0.1429	48000

CCCC[n+]1ccn(C)c1.O=S(=O)([O-])C(F)(F)F + O
Conditions	viscosity [mPa·s]
343.15 K, 101 kPa, x2 = 0.1939	10.55 ± 0.78
